In article PMC5676038, “MCR-1 Inhibition with Peptide-Conjugated Phosphorodiamidate Morpholino Oligomers Restores Sensitivity to Polymyxin in Escherichia coli” (mBio, 2017):
Positions of bridges follow the written chain, without caps; N, C: chain ends. Non-standard residues stand in square brackets, D forms with d. Residues, ends and D or L forms follow the SMILES beside them. *: point of attachment. X1 = CC[C@H](C)CCCCC(=O)*; Dab = NCC[C@H](N)C(=O)O

Legend:
E. coli MRSN 388634 [1] = test: Mouse septicemia model, survival; format: in vivo, BALB/c mice
Protocol: FIG 4 PPMOs combined with colistin protect mice from a lethal dose of mcr-1-positive E. coli. Female BALB/c mice (7 to 8 weeks old) were infected via intraperitoneal injection with 1e6 CFU of MRSN 388634. At 2 and 6 h postinfection 0.5 mg/kg colistin sulfate, 100 μg PPMO (~5 mg/kg), or the combination was administered via the i.p. route. Mice were monitored for morbidity, with an assessment scored at a maxima of 6 (moribund; dotted line [b]) and a nadir of 0. The data represent the means and SEM from two replicate experiments (n = 4) (n = 8 per group total). (A to C) Survival curve (A), morbidity scoring (B), and weight loss measurement (C) over the course of 5 days. ****, P < 0.0001 by the Mantel-Cox log-rank test.
(§1) Briefly, 7- to 8-week-old female BALB/c mice (Jackson Laboratory, Sacramento, CA, USA) were infected intraperitoneally (i.p.) with 8 × 10^4 CFU of E. coli (MRSN 388634) in DPBS with 5% mucin (M1778; Sigma-Aldrich). At 2 and 6 h postinfection, 0.25 mg/kg colistin sulfate, 100 µg PPMO, or the combination was administered i.p. in 100 µl DPBS. Morbidity was assessed at 24 h, immediately prior to euthanasia. Mice were scored from 0 to 6 as follows: 0 for the absence or 1 for the presence of a ruffled coat; 0 for a normal posture, 1 for a hunched posture, and 2 for a prostrate posture; and 0 for nondisturbed movement, 1 for slow movement, 2 for movement after prodding, and 3 for no movement. Mice that succumbed to infection prior to euthanasia were scored as the maxima, 6 (moribund). Spleen and liver were harvested and homogenized in 1 ml DPBS (Omni TH; Omni International, Kennesaw, GA), serially diluted, and plated on blood agar.
Mice were infected and treated as described above except that the inoculum was increased to 1 × 10^6 CFU and the colistin dose was increased to 0.5 mg/kg. Mice were weighed, and morbidity was assessed every 6 h for the first 36 h and then every 12 h out to 120 h (5 days). Mice that reached the moribund state were euthanized.

E. coli MRSN 388634 [2] = test: Mouse septicemia model, acute; format: in vivo, BALB/c mice
Protocol: FIG 3 PPMOs rescue colistin activity in a mouse model of acute septicemia. Female BALB/c mice (7 to 8 weeks old) were infected via intraperitoneal injection with 8e4 CFU of MRSN 388634. At 2 and 6 h postinfection, 0.25 mg/kg colistin sulfate, 100 μg PPMO (~5 mg/kg), or the combination was administered via the i.p. route. Mice were euthanized at 24 h, and organ burden was determined. Numbers of CFU per gram of tissue of the liver (A) and spleen (B) are shown. (C) Morbidity was assessed immediately prior to euthanasia and scored as a maxima of 6 (moribund) and a nadir of 0. Mice that succumbed prior to euthanasia are depicted with the maxima score of 6. The data represent the means and standard errors of the means (SEM) of results from two replicate experiments (n = 4) (n = 8 per group total). n.s., not significant; *, P < 0.05; **, P < 0.01; ***, P < 0.001; ****, P < 0.0001 by Student’s t test, with the Mann-Whitney test used for morbidity.
Animal experiments were approved by the […] at UT Southwestern Medical Center (protocol number 2016-101626). The mouse model of septicemia with PPMO rescue of antibiotic activity was described previously ([10]).
as §1

Compound | survival to the 5-day endpoint, combination with colistin (E. coli MRSN 388634 [1]; BALB/c, 1 × 10^6 CFU i.p., PPMO 100 μg (~5 mg/kg) + colistin sulfate 0.5 mg/kg i.p. at 2 and 6 h, n = 6/8) [%] | body weight course, combination with colistin (E. coli MRSN 388634 [1]; PPMO ~5 mg/kg + colistin sulfate 0.5 mg/kg, over 5 days) | morbidity course, combination with colistin (E. coli MRSN 388634 [1]; PPMO ~5 mg/kg + colistin sulfate 0.5 mg/kg, score 0 to 6) | effect on burden or morbidity at 24 h, PPMO alone (E. coli MRSN 388634 [2]; BALB/c, 8 × 10^4 CFU i.p., PPMO 100 μg (~5 mg/kg) i.p. at 2 and 6 h postinfection, n = 8) | decrease in the number of CFU, combination with colistin (E. coli MRSN 388634 [2]; PPMO ~5 mg/kg + colistin sulfate 0.25 mg/kg i.p. at 2 and 6 h, 24 h) | liver burden and morbidity, combination with colistin, compared to Ctrl PPMO and colistin (E. coli MRSN 388634 [2]; PPMO ~5 mg/kg + colistin sulfate 0.25 mg/kg i.p. at 2 and 6 h, 24 h, n = 8) | numbers of CFU in liver and spleen at 24 h, combination with colistin, compared to DPBS control (E. coli MRSN 388634 [2]; PPMO ~5 mg/kg + colistin sulfate 0.25 mg/kg i.p. at 2 and 6 h, n = 8) | burden in the liver and morbidity at 24 h, colistin alone (E. coli MRSN 388634 [2]; BALB/c, 8 × 10^4 CFU i.p., colistin sulfate 0.25 mg/kg i.p. at 2 and 6 h, n = 8)
TCAAAGAGTAC [Mcr1-0545, (RXR)4XB 3′-end-conjugated PPMO targeted to mcr-1 mRNA, positions −8 to +3; theone tested in mice] | 75 | continued to lose weight over the course of the experiment | increased initially, but the mice began to recover by 24 h | Neither the MCR-1 nor the Ctrl PPMO alone had an effect | ~ 1 log | significantly less | significant reduction | –
CC[C@H](C)CCCCC(=O)N[C@@H](CCN)C(=O)N[C@H](C(=O)N[C@@H](CCN)C(=O)N[C@H]1CCNC(=O)[C@H]([C@@H](C)O)NC(=O)[C@H](CCN)NC(=O)[C@H](CCN)NC(=O)[C@H](CC(C)C)NC(=O)[C@@H](CC(C)C)NC(=O)[C@H](CCN)NC1=O)[C@@H](C)O [Colistin, colistin, reference compound] (X1-[Dab]T[Dab][Dab][Dab][dL]L[Dab][Dab]T; lactam 4-C (inferred); N-terminus assumed) | – | – | – | – | – | – | – | significant reduction
